Experimental data: patent EP4501112A1, “PLANT DEFENSE ELICITORS” (Globachem NV, priority 2023, dated 2025)
Read-outs that look alike come from different tables or passages of the source.

Legend:
[1] = system: English grain aphid (Sitobion avenae); experiment: Survival of S. avenae on wheat after foliar spray (greenhouse pots); assay type: in vivo; settings: 0.65 g pelargonic acid in 500 mL water
Description: DISEASE/PEST: English grain aphid (Sitobion avenae) CROP: WHEAT (Triticum aestivum) APPLICATION: FOLIAR PROTOCOL: T. aestivum plants were grown in pots (8x8 cm) in the greenhouse until reaching a height of 10 cm. Each pot contained 50 seeds. Each treatment consisted of 3 replicates. Plants were sprayed with a handheld sprayer containing 0.65 g of pelargonic acid in 500 mL of water for the 3 replicates. Control plants were sprayed with water. Spraying solutions (as noted in the Table 1) were prepared freshly before treatment. S. avenae (N=10) were added 1 hour after spraying. Insects were counted, 1, 4, 6, 12 and 14 days after the treatment applied. Table 1. Efficacy assessment survival of S. avenae on T. aestivum (number of aphids)

Plutella xylostella = experiment: P. xylostella survival and leaf damage on untreated leaves after treating one leaf of Chinese cabbage; assay type: in vivo; set-up: key to P. xylostella leaf damage: 0=no damage or no sucking observed; 1=some damage or some sucking observed; 3=half leaf eaten or half of aphids sucking the leaf; 5=no leaf left or all insects sucking and reproducing; settings: for P. xylostella leaf damage: damage scale 0 - 5
Description: DISEASE/PEST: Plutella xylostella / Myzus persicae CROP: Chinese cabbage (Brassica rapa subsp. Pekinensis) APPLICATION: FOLIAR on one leaf of the plant EXPERIMENT/TRIAL PROTOCOL: […] Leaves were left to dry for 1 hour. P. xylostella or M. persicae were added to clip cages on non-treated leaves 1 hour or 24 hours after the applied treatment wherein those cages restrict the movement of the insects to the other leaves. Table 2. Effect on survival and leaf damage of P. xylostella and […] on untreated leaves of […].

S. exigua = experiment: Direct feeding of pelargonic acid (comparative example 1c); assay type: in vivo; settings: Table 3 is an image
Source text: Example 1c. Direct effect pelargonic acid (Comparative example) [table]

Meligethes Aeneus = experiment: Field trial, foliar spray against M. aeneus on oil seed rape; assay type: in vivo
Source text: DISEASE/[…] Aeneus CROP: Oil seed rape (Brassica napus spp. Campino) APPLICATION: Foliar spray EXPERIMENT/TRIAL PROTOCOL: Foliar spray was applied in the field with a motorized sprayer in spring when the insects appeared on the crop (BBCH 38-41). The trial design consisted of a randomized complete block with 4 replications per treatment. The treated area per plot was 30m^2. Used water volume was 300 L/ha. Evaluation was done by counting adult insects per 25 plants. […] Table 5: Efficacy assessment: % efficacy versus untreated (%UNCK) of M. aeneus on B. napus (field)

Leptosphaeria maculans = experiment: Seed treatment lab trial against Leptosphaeria maculans in oilseed rape seedlings; assay type: in vivo; settings: Plenodomus lingam, in Brassica napus, 144 h, 6 days after inoculation, read-out: % Efficacy
Source text: [table] Table 8: Efficacy assessment of fatty acids in seed treatment of Leptosphaeria maculans in oilseed rape (variety Helga)

[2] = system: Phytophthora infestans (PHYTIN); experiment: whole plant or invertebrate; assay type: in vivo; settings: in Solanum tuberosum, foliar
Puccinia triticina = experiment: Greenhouse trial, foliar treatment against PUCCTR in wheat
Maize (cultivar Mofox) = experiment: Abiotic stress (flooding, drought, daily watered) growth trial on maize, foliar treatment
[3] = daily watered (normal) conditions, foliar 65 g/ha
[4] = daily watered (normal) conditions, foliar 325 g/ha
[5] = daily watered (normal) conditions, foliar 650 g/ha
[6] = daily watered (normal) conditions, foliar 1300 g/ha
[7] = drought conditions, foliar 65 g/ha
[8] = drought conditions, foliar 325 g/ha
[9] = drought conditions, foliar 650 g/ha
[10] = drought conditions, foliar 1300 g/ha
[11] = flooding conditions, foliar 65 g/ha
[12] = flooding conditions, foliar 325 g/ha
[13] = flooding conditions, foliar 650 g/ha
[14] = flooding conditions, foliar 1300 g/ha

CCCCCCCCC(=O)O [Pelargonic acid, pelargonic acid]
survival of S. avenae on T. aestivum (number of aphids) ([1]; 4 DAT): 4.2 | survival of S. avenae on T. aestivum (number of aphids) ([1]; 6 DAT): 7.4 | survival of S. avenae on T. aestivum (number of aphids) ([1]; 10 aphids added 1 hour after spraying, 1 DAT): 3 | survival of S. avenae on T. aestivum (number of aphids) ([1]; 12 DAT): 9.6 | survival of S. avenae on T. aestivum (number of aphids) ([1]; 14 DAT): 15 | P. xylostella leaf damage (Plutella xylostella; 0.78 mg on one leaf, insects added 1h after treatment, 6 DAT): 1 | P. xylostella leaf damage (Plutella xylostella; 0.78 mg on one leaf, insects added 1h after treatment, 24h AT): 1 | P. xylostella leaf damage (Plutella xylostella; 0.78 mg on one leaf, insects added 24 h after treatment, 6 DAT): 5 | P. xylostella leaf damage (Plutella xylostella; 0.78 mg on one leaf, insects added 24 h after treatment, 24h AT): 4 | P. xylostella survival (Plutella xylostella; 0.78 mg on one leaf, insects on non-treated leaves, added 1h after treatment, 6 DAT): growth limited to L3 stage | larval maturation and leaf damage in P. xylostella (Plutella xylostella; 0.78mg, insects introduced 1h after treatment to an untreated leaf of the same plant): reduction | direct control of S. exigua (S. exigua): no direct control | % efficacy versus untreated (%UNCK) of M. aeneus on B. napus (field) (Meligethes Aeneus; 650 g/ha, 4DAA): 91 b % | % efficacy versus untreated (%UNCK) of M. aeneus on B. napus (field) (Meligethes Aeneus; 650 g/ha, 8DAA): 89 b % | % efficacy versus untreated (%UNCK) of M. aeneus on B. napus (field) (Meligethes Aeneus; 650 g/ha, 300 L/ha water, 1DAA): 34.60 c % | % efficacy versus untreated (%UNCK) of M. aeneus on B. napus (field) (Meligethes Aeneus; 975 g/ha, 1DAA): 79.25 ab % | % efficacy versus untreated (%UNCK) of M. aeneus on B. napus (field) (Meligethes Aeneus; 975 g/ha, 4DAA): 100 a % | % efficacy versus untreated (%UNCK) of M. aeneus on B. napus (field) (Meligethes Aeneus; 975 g/ha, 8DAA): 100 a % | Emax (Leptosphaeria maculans; seed treatment 0.76 g/ton, % healthy plants vs infected seedlings): 100% | Emax (Leptosphaeria maculans; seed treatment 3.04 g/ton): 80% | Emax (Leptosphaeria maculans; seed treatment 6.08 g/ton): 80% | Emax (Leptosphaeria maculans; seed treatment 7.60 g/ton): 100% | % efficacy ([2]; read-out: ASSESSMENT 7 DAI (% efficacy), foliar 0.76 g/ha): 0.2% | % efficacy ([2]; read-out: ASSESSMENT 7 DAI (% efficacy), foliar 1.14 g/ha): 14% | % efficacy ([2]; read-out: ASSESSMENT 7 DAI (% efficacy), foliar 1.52 g/ha): 20.1% | % efficacy ([2]; read-out: ASSESSMENT 7 DAI (% efficacy), foliar 2.66 g/ha): 23% | % efficacy ([2]; read-out: ASSESSMENT 7 DAI (% efficacy), foliar 3.80 g/ha): 18.6% | % efficacy ([2]; read-out: ASSESSMENT 7 DAI (% efficacy), foliar 5.32 g/ha): 17.7% | % efficacy ([2]; read-out: ASSESSMENT 7 DAI (% efficacy), foliar 7.60 g/ha, inoculated 7 days after treatment): 3% | % efficacy ([2]; read-out: ASSESSMENT 14 DAI (% efficacy), foliar 0.76 g/ha): 0% | % efficacy ([2]; read-out: ASSESSMENT 14 DAI (% efficacy), foliar 1.14 g/ha): 7.9% | % efficacy ([2]; read-out: ASSESSMENT 14 DAI (% efficacy), foliar 1.52 g/ha): 22% | % efficacy ([2]; read-out: ASSESSMENT 14 DAI (% efficacy), foliar 2.66 g/ha): 21.9% | % efficacy ([2]; read-out: ASSESSMENT 14 DAI (% efficacy), foliar 3.80 g/ha): 7% | % efficacy ([2]; read-out: ASSESSMENT 14 DAI (% efficacy), foliar 5.32 g/ha): 16.7% | % efficacy ([2]; read-out: ASSESSMENT 14 DAI (% efficacy), foliar 7.60 g/ha): 5.4% | EFFICACY % ALL LEAV ES (Puccinia triticina; foliar 1.52 g ai/ha, 13 dai): 18.6% | EFFICACY % LEAF 1 (Puccinia triticina; foliar 1.52 g ai/ha, 13 dai): 50.0% | EFFICACY % LEAF 2 (Puccinia triticina; foliar 1.52 g ai/ha, 13 dai): 5.9% | EFFICACY % LEAF 3 (Puccinia triticina; foliar 1.52 g ai/ha, 13 dai): 5.9% | EFFICACY % LEAF 4 (Puccinia triticina; foliar 1.52 g ai/ha, 13 dai): 12.5% | EFFICACY % ALL LEAV ES (Puccinia triticina; foliar 7.6 g ai/ha, 21 dai): 23.6% | EFFICACY % LEAF 1 (Puccinia triticina; foliar 7.6 g ai/ha, 21 dai): 28.6% | EFFICACY % LEAF 2 (Puccinia triticina; foliar 7.6 g ai/ha, 21 dai): 17.9% | EFFICACY % LEAF 3 (Puccinia triticina; foliar 7.6 g ai/ha, 21 dai): 29.8% | EFFICACY % LEAF 4 (Puccinia triticina; foliar 7.6 g ai/ha, 21 dai): 18.3% | EFFICACY % ALL LEAV ES (Puccinia triticina; foliar 95 g ai/ha, 13 dai): 11.3% | EFFICACY % LEAF 1 (Puccinia triticina; foliar 95 g ai/ha, 13 dai): 33.3% | EFFICACY % LEAF 2 (Puccinia triticina; foliar 95 g ai/ha, 13 dai): 0.0% | EFFICACY % LEAF 3 (Puccinia triticina; foliar 95 g ai/ha, 13 dai): 11.8% | EFFICACY % LEAF 4 (Puccinia triticina; foliar 95 g ai/ha, 13 dai): 0,0% | EFFICACY % ALL LEAV ES (Puccinia triticina; foliar 760 g ai/ha, 13 dai): 30.5% | EFFICACY % LEAF 1 (Puccinia triticina; foliar 760 g ai/ha, 13 dai): 66.7% | EFFICACY % LEAF 2 (Puccinia triticina; foliar 760 g ai/ha, 13 dai): 11.8% | EFFICACY % LEAF 3 (Puccinia triticina; foliar 760 g ai/ha, 13 dai): 0.0% | EFFICACY % LEAF 4 (Puccinia triticina; foliar 760 g ai/ha, 13 dai): 43.8% | % total growth to control (Maize (cultivar Mofox); [3]): 71% | ASSESSMENT total growth after 15 days (cm) (Maize (cultivar Mofox); [3]): 18.4 cm | % total growth to control (Maize (cultivar Mofox); [4]): 87% | ASSESSMENT total growth after 15 days (cm) (Maize (cultivar Mofox); [4]): 22.5 cm | % total growth to control (Maize (cultivar Mofox); [5]): 95% | ASSESSMENT total growth after 15 days (cm) (Maize (cultivar Mofox); [5]): 24.8 cm | % total growth to control (Maize (cultivar Mofox); [6]): 78% | ASSESSMENT total growth after 15 days (cm) (Maize (cultivar Mofox); [6]): 20.3 cm | % total growth to control (Maize (cultivar Mofox); [7]): 87% | ASSESSMENT total growth after 15 days (cm) (Maize (cultivar Mofox); [7]): 17.4 cm | % total growth to control (Maize (cultivar Mofox); [8]): 87% | ASSESSMENT total growth after 15 days (cm) (Maize (cultivar Mofox); [8]): 17.6 cm | % total growth to control (Maize (cultivar Mofox); [9]): 112% | ASSESSMENT total growth after 15 days (cm) (Maize (cultivar Mofox); [9]): 22.2 cm | % total growth to control (Maize (cultivar Mofox); [10]): 91% | ASSESSMENT total growth after 15 days (cm) (Maize (cultivar Mofox); [10]): 18.2 cm | % total growth to control (Maize (cultivar Mofox); [11]): 104% | ASSESSMENT total growth after 15 days (cm) (Maize (cultivar Mofox); [11]): 26.3 cm | % total growth to control (Maize (cultivar Mofox); [12]): 104% | ASSESSMENT total growth after 15 days (cm) (Maize (cultivar Mofox); [12]): 26.1 cm | % total growth to control (Maize (cultivar Mofox); [13]): 90% | ASSESSMENT total growth after 15 days (cm) (Maize (cultivar Mofox); [13]): 22.6 cm | % total growth to control (Maize (cultivar Mofox); [14]): 82% | ASSESSMENT total growth after 15 days (cm) (Maize (cultivar Mofox); [14]): 20.7 cm
